Results as given in patent US11753363B2, “13-oxidized ingenol derivative and use thereof” (Tianjin Pharmaceutical Da Ren Tang Group Corp., Ltd. …, priority 2017, dated 2023).
Values after ≈ are worked out from the molar mass of the structure shown.

Columns and labels:
[1] = tested on: A549 (human lung cancer cells); experiment: Inhibition of proliferation of tumor cell lines (MTT), A549; assay type: cell-based; details: Homo sapiens, A549, 72 h, read-out: IC50 value of compound for inhibition of proliferation of tumor cell lines, A549
Method: (§1) In this example, the inhibitory activity of compounds of the present invention against proliferation of seven human tumor cell lines and mouse B16-F10 melanoma cells was tested in vitro, and the IC50 value (50% inhibitory concentration) of compounds against each tumor cell line was calculated.
(§2) The seven human tumor cell lines are: MCF-7 (human breast cancer cells), LOVO (human colon cancer cells), A549 (human lung cancer cells), BGC-823 (human gastric cancer cells), SMMC-7721 (human liver cancer cells), K562 (human leukemia cells), and HeLa (human cervical cancer cells).
(§3) IC50 values of the compounds for A549, BGC-823, LOVO, MCF-7, SMMC-7721, HeLa, and B16-F10 cells were tested. The above cells were routinely cultured in 1640 nutrient solution containing 10% calf serum, with passage for 1 time every 2 days, and the cells in logarithmic growth phase were taken for experiments. After the A549, BGC-823, LOVO, MCF-7, SMMC-7721, HeLa and B16-F10 cells in logarithmic growth phase were subjected to 0.25% trypsin digestion, they were blown into a single cell suspension, and then the cell concentration was adjusted to about 1×10^5·mL^−1 using RPMI 1640 solution containing 10% calf serum. The cells were seeded in a 96-well culture plate at 100 μL per well, and cultured for 24 hours until the cells were attached. K562 cells were taken and centrifuged and diluted into 2×10^5·mL^−1 single cell suspension with RPMI 1640 solution containing 10% calf serum, and inoculated into a 96-well culture plate at 100 μL per well.
(§4) 100 μL of sample solution with different concentrations to be tested were added to the above 96-well plate, each concentration was added to 4 wells in parallel, and the cell control group was added with an equal volume of RPMI 1640 medium containing 10% calf serum to make a reaction volume of 200 μL. After incubating in an incubator at 37° C., 5% CO2 for 72 h, 10 μL of 5 mg·mL^−1 MTT solution was added to each well, and incubated at 37° C. for 4 h. The supernatant was carefully aspirated, 180 μL of DMSO was added to each well followed by shaking, and the absorbance (OD) value was measured at 570 nm on the microplate reader. The inhibition rate was calculated, and regression equation was established with the logarithmic value of the sample concentration and the inhibition rate (IR) to find the IC50 value of the compound against the cells to be tested. IR (%)=(1−OD value of the experimental group/OD value of the cell control group)×100%

[2] = tested on: BGC-823 (human gastric cancer cells); experiment: Inhibition of proliferation of tumor cell lines (MTT), BGC-823; assay type: cell-based; details: Homo sapiens, BGC-823, 72 h, read-out: IC50 value of compound for inhibition of proliferation of tumor cell lines, BGC-823
Method: as §1, §2, §3, §4

[3] = tested on: LOVO (human colon cancer cells); experiment: Inhibition of proliferation of tumor cell lines (MTT), LOVO; assay type: cell-based; details: Homo sapiens, 72 h, read-out: IC50 value of compound for inhibition of proliferation of tumor cell lines, LOVO
Method: as §1, §2, §3, §4

[4] = tested on: K562 (human leukemia cells); experiment: Inhibition of proliferation of tumor cell lines (MTT), K562; assay type: cell-based; details: Homo sapiens, K562, 72 h, read-out: IC50 value of compound for inhibition of proliferation of tumor cell lines, K562
Method: as §1, §2, §3, §4

[5] = tested on: SMMC-7721 (human liver cancer cells); experiment: Inhibition of proliferation of tumor cell lines (MTT), SMMC-7721; assay type: cell-based; details: Homo sapiens, SMMC-7721, 72 h, read-out: IC50 value of compound for inhibition of proliferation of tumor cell lines, SMMC-7721
Method: as §1, §2, §3, §4

[6] = tested on: MCF-7 (human breast cancer cells); experiment: Inhibition of proliferation of tumor cell lines (MTT), MCF-7; assay type: cell-based; details: Homo sapiens, MCF7, MCF-7, 72 h, read-out: IC50 value of compound for inhibition of proliferation of tumor cell lines, MCF-7
Method: as §1, §2, §3, §4

[7] = tested on: HeLa (human cervical cancer cells); experiment: Inhibition of proliferation of tumor cell lines (MTT), HeLa; assay type: cell-based; details: Homo sapiens, 72 h, read-out: IC50 value of compound for inhibition of proliferation of tumor cell lines, HeLA
Method: as §1, §2, §3, §4

[8] = tested on: mouse B16-F10 melanoma cells; experiment: Inhibition of proliferation of tumor cell lines (MTT), B16-F10; assay type: cell-based; details: Mus musculus, B16-F10, 72 h, read-out: IC50 value of compound for inhibition of proliferation of tumor cell lines, B16-F10
Method: as §1, §3, §4

[9] = tested on: neutrophilic granulocytes; experiment: Neutrophil oxidative burst (luminol chemiluminescence); assay type: cell-based; details: Neutrophil, rat neutrophils, (Csample−Ccontrol)/Ccontrol×100%, read-out: Efficiency of compounds in stimulating neutrophil oxidative burst; for activation at 0.1 µg/mL: 0.1 μg/mL; for activation at 3 µg/mL: 3 μg/mL
Method: This example investigated the effect of compound on neutrophil oxidative burst and calculated the efficiency of each compound in stimulating neutrophil oxidative burst.
Blood was taken from the abdominal aorta of rat. The neutrophilic granulocytes were isolated by the operational procedure of the rat peripheral blood neutrophil isolation kit. The neutrophilic granulocytes were re-suspended by Hanks, and were plated in a 96-well white plate at 1×10^5 cells/well, 80 μL/well; 1 mM of Luminol was added at 10 μL/well; 10 μL of the sample was added to each well, and the degree of oxidative burst was evaluated by chemiluminescence. Calculation formula of Efficiency: Efficiency (%)=(Csample−Ccontrol)/Ccontrol×100%

[10] = tested on: release of IL-8 by human keratinocytes (HaCaT); experiment: Release of IL-8 by human keratinocytes (HaCaT), IL-8 Elisa; assay type: cell-based; details: Homo sapiens, HaCaT, 24 h, (Csample−Ccontrol)/Ccontrol×100%, read-out: Efficiency of compound in stimulating the release of IL-8 by HaCaT cells; for activation at 0.1 µg/mL: 0.1 μg/mL
Method: This Example investigated the effect of compound on release of IL-8 by human keratinocytes (HaCaT) and calculated the efficiency of each compound in stimulating the release of IL-8 by human keratinocytes (HaCaT).
Hacat cells were cultured in MEM+10% FBS under the conditions of 37° C., 5% CO2, and when the cells reached 80-95% fusion, they were inoculated into a 96-well culture plate (1×10^4 cells/well) at 100 μL/well, and incubated for 18-24 h. The supernatant was discarded and the cells were incubated for 3-6 h in 1% FBS medium. Different concentrations of the sample solution of compound to be tested were added to each well, and the cell control group was added with an equal volume of 1% FBS medium at 10 μL/well, and incubated for 24 h. The supernatant was taken and tested according to the operation sequence of the IL-8 Elisa kit. Calculation formula of Efficiency: Efficiency (%)=(Csample−Ccontrol)/Ccontrol×100%

[11] = tested on: B16-F0 mouse melanoma; experiment: Antitumor activity in B16-F0 mouse melanoma model; assay type: in vivo; details: female C57BL/6J mice, intradermal B16 tumor, skin administration once per day for 3 days, 20 μL/mouse, tumor weight on day 19
Method: This Example investigated the antitumor activity of compounds in B16-F0 mouse melanoma model.
In vitro passage of B16-F0 tumor source was inoculated subcutaneously into female C57BL/6J mice, and passage was carried out after tumor formation. After passage, the subcutaneous tumor tissue of the tumor-bearing mice was taken and ground with 3 times amount of physiological saline to form a tumor cell suspension, and 0.2 mL/mouse of which was inoculated subcutaneously into the axilla of forelimb of mice, which were used as the tumor-source mice. Female C57BL/6J mice were taken and their hair in an area of 4 cm^2 on the neck and back was shaven. After anesthesia with diethyl ether, B16 tumor source was inoculated intradermally at 0.05 mL/mouse. After 3 days of inoculation, the skin was continuously administered for 3 days, once per day, 20 μL/mouse each time, and in the test, a solvent group as a negative control group was included. On the 19th day of the experiment, the experiment was terminated. After the mice were euthanized, the intradermally transplanted tumors were completely separated and excised, and the tumor was weighed to calculate the tumor inhibition rate. Calculation formula of tumor inhibition rate: tumor inhibition rate (%)=(Wmodel group−Wadministration group)/Wmodel group×100%
The tumor growths of the experimental group and the solvent control group were compared to evaluate the antitumor activity of each compound, and the compound with P<0.05 was considered to be effective.

SMILES | IC50 [1] | IC50 [2] | IC50 [3] | IC50 [4] | IC50 [5] | IC50 [6] | IC50 [7] | IC50 [8] | activation at 0.1 µg/mL [9] | activation at 0.1 µg/mL [10] | Tumor-inhibition rate [11] | activation at 1 µg/mL ([10]; 1 μg/mL) | activation at 3 µg/mL [9]
C/C=C(/C)C(=O)O[C@H]1C(C)=C[C@]23C(=O)[C@@H](C=C(CO)[C@@H](O)[C@]12O)[C@@H]1C(C)(C)[C@]1(OC(=O)CCCCC)C[C@H]3C [Compound 17, 3-O-angeloyl-13-O-hexanoyl-ingenol] | 21.7 µg/mL (≈ 39.8 µM) | 21.7 µg/mL (≈ 39.8 µM) | 16.9 µg/mL (≈ 31 µM) | 2.93 µg/mL (≈ 5.38 µM) | 21.1 µg/mL (≈ 38.7 µM) | 18.6 µg/mL (≈ 34.1 µM) | 18.6 µg/mL (≈ 34.1 µM) | 6.5 µg/mL (≈ 11.9 µM) | 82.1% | 121% | 68.8% | – | –
C/C=C(/C)C(=O)O[C@H]1C(C)=C[C@]23C(=O)[C@@H](C=C(CO)[C@@H](O)[C@]12O)[C@@H]1C(C)(C)[C@]1(OC(C)=O)C[C@H]3C [Compound 8, 3-O-angeloyl-13-O-acetyl-ingenol] | > 50 µg/mL | > 100 µg/mL | > 50 µg/mL | 0.0065 µg/mL (≈ 0.0133 µM) | 96.6 µg/mL (≈ 198 µM) | > 50 µg/mL | > 100 µg/mL | – | – | – | 90.3% | 38.3% | –
CCCCCCCCCCCC(=O)O[C@@]12C[C@@H](C)[C@]34C=C(C)[C@H](OC(=O)c5c(CC)noc5CC)[C@@]3(O)[C@H](O)C(CO)=C[C@H](C4=O)[C@@H]1C2(C)C [Compound 22, 3-O-(3,5-diethylisoxazolyl-4-formyl)-13-O-dodecanoyl-ingenol] | 18.3 µg/mL (≈ 26.2 µM) | 11.3 µg/mL (≈ 16.2 µM) | 11 µg/mL (≈ 15.8 µM) | 1.14 µg/mL (≈ 1.63 µM) | 20.1 µg/mL (≈ 28.8 µM) | 10.9 µg/mL (≈ 15.6 µM) | 9.59 µg/mL (≈ 13.7 µM) | 2.96 µg/mL (≈ 4.24 µM) | 124% | 144% | 39.5% | – | –
C/C=C(/C)C(=O)O[C@H]1C(C)=C[C@]23C(=O)[C@@H](C=C(CO)[C@@H](O)[C@]12O)[C@@H]1C(C)(C)[C@]1(OC(=O)CCCCCCCCC)C[C@H]3C [Compound 19, 3-O-angeloyl-13-O-decanoyl-ingenol] | 12.6 µg/mL (≈ 21 µM) | 14 µg/mL (≈ 23.3 µM) | 7.9 µg/mL (≈ 13.1 µM) | 2.13 µg/mL (≈ 3.55 µM) | 13.4 µg/mL (≈ 22.3 µM) | 9.3 µg/mL (≈ 15.5 µM) | 8.58 µg/mL (≈ 14.3 µM) | 9.85 µg/mL (≈ 16.4 µM) | 43.5% | 144% | 65.7% | – | –
C/C=C(/C)C(=O)O[C@H]1C(C)=C[C@]23C(=O)[C@@H](C=C(CO)[C@@H](O)[C@]12O)[C@@H]1C(C)(C)[C@]1(OC(=O)CCC)C[C@H]3C [Compound 16, 3-O-angeloyl-13-O-butanoyl-ingenol] | 46.8 µg/mL (≈ 90.6 µM) | 44.1 µg/mL (≈ 85.4 µM) | 36.9 µg/mL (≈ 71.4 µM) | 4.21 µg/mL (≈ 8.15 µM) | 43.5 µg/mL (≈ 84.2 µM) | 38.4 µg/mL (≈ 74.3 µM) | 61.1 µg/mL (≈ 118 µM) | 17 µg/mL (≈ 32.9 µM) | – | 84.6% | 89.6% | – | 80.1%
CCCCCCCCCCCC(=O)O[C@@]12C[C@@H](C)[C@]34C=C(C)[C@H](OC(=O)C(C)=C(C)C)[C@@]3(O)[C@H](O)C(CO)=C[C@H](C4=O)[C@@H]1C2(C)C [Compound 21, 3-O-(2,3-dimethylbutenoyl)-13-O-dodecanoyl-ingenol] | 11.8 µg/mL (≈ 18.4 µM) | 10.4 µg/mL (≈ 16.2 µM) | 12.4 µg/mL (≈ 19.3 µM) | 2.06 µg/mL (≈ 3.2 µM) | 12.8 µg/mL (≈ 19.9 µM) | 8.32 µg/mL (≈ 12.9 µM) | 15.3 µg/mL (≈ 23.8 µM) | 15.1 µg/mL (≈ 23.5 µM) | – | 127% | 64.1% | – | 34.8%
CCCCCCCCCCCC(=O)O[C@@]12C[C@@H](C)[C@]34C=C(C)[C@H](OC(C)=O)[C@@]3(O)[C@H](O)C(CO)=C[C@H](C4=O)[C@@H]1C2(C)C [Compound 10, 3-O-acetyl-13-O-dodecanoyl-ingenol] | 10.7 µg/mL (≈ 18.2 µM) | 14.7 µg/mL (≈ 25 µM) | 9.41 µg/mL (≈ 16 µM) | 0.22 µg/mL (≈ 0.374 µM) | 13.1 µg/mL (≈ 22.2 µM) | 16.3 µg/mL (≈ 27.7 µM) | 10.9 µg/mL (≈ 18.5 µM) | 21.4 µg/mL (≈ 36.3 µM) | 111% | 79.5% | – | – | –
